≈ marks a conversion by molar mass, not a printed value.
Assays:
Assay type in all cases: functional
Staphylococcus capitis = experiment: Antimicrobial activity against Staphylococcus capitis A8935
Enterococcus faecalis [1] = experiment: Antimicrobial activity against Enterococcus faecalis A6350
Staphylococcus hominis = experiment: Antimicrobial activity against Staphylococcus hominis A7828
Enterococcus faecalis [2] = experiment: Antimicrobial activity against Enterococcus faecalis A7789
Enterococcus faecalis [3] = experiment: Antimicrobial activity against Enterococcus faecalis ATCC 29212
Streptococcus pneumoniae [4] = experiment: Antimicrobial activity against Streptococcus pneumoniae 02J1175
Streptococcus pneumoniae [5] = experiment: Antimicrobial activity against Streptococcus pneumoniae PU1071099 harboring 65WR66 deletion in ribosomal protein L4 by broth microdilution method
Enterococcus faecium = experiment: Antimicrobial activity against vancomycin-resistant Enterococcus faecium nosocomial isolate; details: Enterococcus faecium; read-out: MIC
Enterococcus faecalis [6] = experiment: Antimicrobial activity against vancomycin-resistant Enterococcus faecalis 03B1069
Enterococcus faecalis [7] = experiment: Antimicrobial activity against vancomycin-resistant Enterococcus faecalis nosocomial isolate
Enterococcus faecalis [8] = experiment: Antimicrobial activity against Enterococcus faecalis ATCC 29212-P5 harboring G2576U mutation in 23S rRNA
Streptococcus pneumoniae [9] = experiment: Antimicrobial activity against Streptococcus pneumoniae 02J1258
Enterococcus faecalis [10] = experiment: Antimicrobial activity against Enterococcus faecalis A5962
Haemophilus influenzae = experiment: Antimicrobial activity against Haemophilus influenzae

Row | SMILES | MIC (Staphylococcus capitis) | MIC (Enterococcus faecalis [1]) | MIC (Staphylococcus hominis) | MIC (Enterococcus faecalis [2]) | MIC (Enterococcus faecalis [3]) | MIC (Streptococcus pneumoniae [4]) | MIC (Streptococcus pneumoniae [5]) | MIC (Enterococcus faecium) | MIC (Enterococcus faecalis [6]) | MIC (Enterococcus faecalis [7]) | MIC (Enterococcus faecalis [8]) | MIC (Streptococcus pneumoniae [9]) | MIC (Enterococcus faecalis [10]) | MIC (Haemophilus influenzae) | MIC (Haemophilus influenzae; Haemophilus influenzae, read-out: MIC)
1 | CN[C@H](CC(C)C)C(=O)N[C@H]1C(=O)N[C@@H](CC(N)=O)C(=O)N[C@H]2C(=O)N[C@H]3C(=O)N[C@H](C(=O)N[C@H](C(=O)O)c4cc(O)cc(O)c4-c4cc3ccc4O)[C@H](O)c3ccc(c(Cl)c3)Oc3cc2cc(c3O[C@@H]2O[C@H](CO)[C@@H](O)[C@H](O)[C@H]2O[C@H]2C[C@](C)(N)[C@H](O)[C@H](C)O2)Oc2ccc(cc2Cl)[C@H]1O [VANCOMYCIN] | 1 µg/mL (≈ 0.69 µM) | 1 µg/mL (≈ 0.69 µM) | 2 µg/mL (≈ 1.38 µM) | 1 µg/mL (≈ 0.69 µM) | 2 µg/mL (≈ 1.38 µM) | 0.25 µg/mL (≈ 0.173 µM) | ≤ 0.25 µg/mL | > 64 µg/mL | 32 µg/mL (≈ 22.1 µM) | >16 µg/mL | 2 µg/mL (≈ 1.38 µM) | 0.125 µg/mL (≈ 0.0863 µM) | 8 µg/mL (≈ 5.52 µM) | – | –
2 | C[C@H]1COc2c(N3CCN(C)CC3)c(F)cc3c(=O)c(C(=O)O)cn1c23.C[C@H]1COc2c(N3CCN(C)CC3)c(F)cc3c(=O)c(C(=O)O)cn1c23.O [LEVOFLOXACIN] | – | – | – | – | – | – | – | – | – | – | – | – | – | 16 ng/mL | 8 ng/mL
